# Assays:
# [1] = target: Receptor-type tyrosine-protein kinase FLT3 (Homo sapiens, UniProt P36888, ITD); assay: Inhibition of human FLT3-ITD mutant preincubated with enzyme for 20 mins followed by [gamma-33P]ATP addition and measured after 120 mins by filter binding method
# [2] = system: MV4-11; assay: Antiproliferative activity against human MV4-11 cells assessed as inhibition of cell growth incubated for 72 hrs by CellTiterGlo luminescent assay; format: functional, cell-based; details: MV4-11, 72 h
# [3] = system: BaF3; assay: Antiproliferative activity against mouse BaF3 cells harboring FLT3-ITD-F691L mutant assessed as residual cell viability at 0.1 uM incubated for 72 hrs by CellTiterGlo luminescent assay; format: functional
# [4] = system: BaF3; assay: Antiproliferative activity against mouse BaF3 cells harboring FLT3-ITD-F691L mutant assessed as reduction in cell viability incubated for 72 hrs by CellTiterGlo luminescent assay; format: functional, cell-based; details: BaF3, 72 h
# [5] = system: BaF3; assay: Antiproliferative activity against mouse BaF3 cells harboring FLT3-ITD-F691L mutant assessed as residual cell viability at 10 nM incubated for 72 hrs by CellTiterGlo luminescent assay; format: functional
# [6] = system: BaF3; assay: Antiproliferative activity against mouse BaF3 cells harboring FLT3-ITD-F691L mutant assessed as residual cell viability at 50 nM incubated for 72 hrs by CellTiterGlo luminescent assay; format: functional
# [7] = Antiproliferative activity against mouse BaF3 cells assessed as reduction in cell viability measured after 72 hrs by CellTiterGlo luminescent assay; format: toxicity, cell-based
# [8] = system: BaF3; assay: Antiproliferative activity against mouse BaF3 cells harboring FLT3-ITD-Y842H mutant assessed as reduction in cell viability measured after 72 hrs by CellTiterGlo luminescent assay; format: functional, cell-based; details: BaF3, 72 h
# [9] = system: BaF3; format: functional, cell-based; details: Mus musculus, BaF3, 72 h
# [10] = system: BaF3; assay: Antiproliferative activity against mouse BaF3 cells harboring FLT3-ITD-N676D mutant assessed as reduction in cell viability measured after 72 hrs by CellTiterGlo luminescent assay; format: functional, cell-based; details: BaF3, 72 h
# [11] = system: BaF3; assay: cells; details: Mus musculus, BaF3, 72 h
# Description: Antiproliferative activity against mouse BaF3 cells harboring FLT3-ITD-D835V mutant assessed as reduction in cell viability measured after 72 hrs by CellTiterGlo luminescent assay
# [12] = system: BaF3; assay: Antiproliferative activity against mouse BaF3 cells harboring FLT3-ITD mutant assessed as reduction in cell viability measured after 72 hrs by CellTiterGlo luminescent assay; format: functional, cell-based; details: BaF3, 72 h
# [13] = system: MV4-11; assay: Antitumor activity against human MV4-11 cells xenografted in BALB/c mouse assessed as tumor growth inhibition at 30 mg/kg, iv QD for 21 days by vernier caliper analysis; format: functional; details: MV4-11, 504 h, time 21 day, read-out: TGI
# [14] = Toxicity in BALB/c mouse xenografted with human MV4-11 cells assessed as mortality at 30 mg/kg, iv QD for 10 days; format: organism-based; details: in vivo, 240 h, time 10 day
# [15] = system: MV4-11; assay: Antitumor activity against human MV4-11 cells xenografted in BALB/c mouse assessed as inhibition rate of tumor weight at 30 mg/kg, iv QD for 21 days by vernier caliper analysis; format: functional; details: MV4-11, 504 h, time 21 day
# Chain of Receptor-type tyrosine-protein kinase FLT3 (P36888 whole entry, looked up, stated change not applied): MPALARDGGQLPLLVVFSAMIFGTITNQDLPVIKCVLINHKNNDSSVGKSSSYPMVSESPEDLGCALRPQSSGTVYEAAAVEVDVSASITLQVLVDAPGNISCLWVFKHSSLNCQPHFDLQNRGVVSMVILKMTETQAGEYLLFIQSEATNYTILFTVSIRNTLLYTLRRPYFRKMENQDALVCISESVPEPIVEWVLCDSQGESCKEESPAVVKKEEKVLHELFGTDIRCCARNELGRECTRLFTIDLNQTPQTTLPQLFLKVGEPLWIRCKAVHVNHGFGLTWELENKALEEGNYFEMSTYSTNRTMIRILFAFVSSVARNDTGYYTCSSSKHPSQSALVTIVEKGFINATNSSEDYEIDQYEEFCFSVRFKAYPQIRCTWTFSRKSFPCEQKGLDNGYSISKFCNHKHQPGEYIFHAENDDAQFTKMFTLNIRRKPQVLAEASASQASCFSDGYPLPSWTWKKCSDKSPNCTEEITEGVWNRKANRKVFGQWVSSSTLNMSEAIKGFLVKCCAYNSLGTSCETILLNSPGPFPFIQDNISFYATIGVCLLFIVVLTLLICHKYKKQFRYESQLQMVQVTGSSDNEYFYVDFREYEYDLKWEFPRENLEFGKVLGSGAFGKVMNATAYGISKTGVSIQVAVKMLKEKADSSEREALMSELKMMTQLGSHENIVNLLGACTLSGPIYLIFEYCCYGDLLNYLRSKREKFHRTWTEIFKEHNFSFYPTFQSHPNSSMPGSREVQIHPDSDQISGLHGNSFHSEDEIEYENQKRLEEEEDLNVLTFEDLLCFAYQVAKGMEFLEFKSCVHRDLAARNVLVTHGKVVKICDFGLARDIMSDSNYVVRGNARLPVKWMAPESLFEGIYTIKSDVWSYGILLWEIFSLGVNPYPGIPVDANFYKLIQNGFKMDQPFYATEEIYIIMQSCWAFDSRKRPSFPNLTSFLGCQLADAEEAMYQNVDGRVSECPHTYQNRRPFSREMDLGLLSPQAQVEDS
IC50 [1],IC50 [2],SMILES,Activity [3],Activity [5],other results
10.3 nM,,CN1CCC(Nc2ccc(C(=O)Nc3cc(-c4ccc5ncccc5c4)[nH]n3)cc2)CC1,,,
,30 nM,CN1CCN(c2ccc(C(=O)Nc3cc(-c4ccc5ncn(Cc6ccccc6Cl)c5c4)[nH]n3)cc2)CC1,20.29%,,IC50 [4]: 82.8 nM
,12.6 nM,CCN1CCN(c2ncc(C(=O)Nc3cc(-c4ccc5ncn(Cc6c(Cl)cccc6Cl)c5c4)[nH]n3)cn2)CC1,,111.76%,
3.22 nM,18.5 nM,CN1CCC(Nc2ccc(C(=O)Nc3cc(-c4ccc5ncn(Cc6cccc(F)c6)c5c4)[nH]n3)cc2)CC1,97.08%,,
4.96 nM,,CN1CCC(Nc2ccc(C(=O)Nc3cc(-c4ccc5ncn(-c6ccccc6)c5c4)[nH]n3)cc2)CC1,,,
4.96 nM,58.4 nM,CN1CCC(Nc2ccc(C(=O)Nc3cc(-c4ccc5c(c4)ncn5Cc4ccccc4)[nH]n3)cc2)CC1,,,
,0.77 nM,CN1CCC(Nc2ccc(C(=O)Nc3cc(-c4ccc5ncn(Cc6c(Cl)cccc6Cl)c5c4)[nH]n3)cc2)CC1,,104.29%,
5.73 nM,,CN1CCC(Nc2ccc(C(=O)Nc3cc(-c4ccc5ncn(C6CCOCC6)c5c4)[nH]n3)cc2)CC1,,,
,3.61 nM,O=C(Nc1cc(-c2ccc3ncn(Cc4c(Cl)cccc4Cl)c3c2)[nH]n1)c1ccc(N2CCOCC2)cc1,,109.68%,
1.71 nM,6.38 nM,CN1CCN(Cc2ccc(NC(=O)c3n[nH]cc3Nc3ncnc4[nH]ccc34)cc2)CC1,,,IC50 [4]: 7.65 nM
1.14 nM,68.2 nM,CN1CCC(Nc2ccc(C(=O)Nc3cc(-c4ccc5ncn(C6CCCC6)c5c4)[nH]n3)cc2)CC1,97.57%,,
14.1 nM,,CN1CCC(Nc2ccc(C(=O)Nc3cc(-c4ccc5nccnc5c4)[nH]n3)cc2)CC1,,,
213 nM,,CN1CCC(Nc2ccc(C(=O)Nc3cc(-c4cccc5ncn(C)c45)[nH]n3)cc2)CC1,,,
,9.02 nM,O=C(Nc1cc(-c2ccc3ncn(Cc4ccccc4Cl)c3c2)[nH]n1)c1ccc(N2CCOCC2)cc1,16.59%,,IC50 [4]: 65.2 nM
7.65 nM,,CC(C)n1cnc2ccc(-c3cc(NC(=O)c4ccc(NC5CCN(C)CC5)cc4)n[nH]3)cc21,,,
1.84 nM,,CN1CCC(Nc2ccc(C(=O)Nc3cc(-c4ccc5ncn(Cc6ccccc6)c5c4)[nH]n3)cc2)CC1,96.22%,,
0.7 nM,33.6 nM,COc1ccccc1Cn1cnc2ccc(-c3cc(NC(=O)c4ccc(NC5CCN(C)CC5)cc4)n[nH]3)cc21,85.88%,,
,13.8 nM,O=C(Nc1cc(-c2ccc3ncn(Cc4ccccc4Cl)c3c2)[nH]n1)c1ccc(N2CCNCC2)cc1,14.55%,,IC50 [4]: 60.9 nM
,12.4 nM,CCN1CCN(c2ccc(C(=O)Nc3cc(-c4ccc5ncn(Cc6ccccc6Cl)c5c4)[nH]n3)cc2)CC1,1.72%,90.16%,Activity [6]: 19.95%; IC50 [4]: 29.2 nM
3.77 nM,32.6 nM,CN1CCC(Nc2ccc(C(=O)Nc3cc(-c4ccc5ncn(Cc6ccccc6)c5c4)[nH]n3)cc2F)CC1,100.57%,,
,2.61 nM,CCN1CCN(c2ccc(C(=O)Nc3cc(-c4ccc5ncn(Cc6c(F)cccc6Cl)c5c4)[nH]n3)cc2)CC1,,101.37%,Activity [6]: 21.63%
7.59 nM,,CN1CCC(Nc2ccc(C(=O)Nc3cc(-c4ccc5ncn(C)c5c4)[nH]n3)cc2)CC1,,,
,2.88 nM,O=C(Nc1cc(-c2ccc3ncn(Cc4c(Cl)cccc4Cl)c3c2)[nH]n1)c1ccc(N2CC3CC2CO3)cc1 (stereo not given),,88.75%,
4.58 nM,23.6 nM,CN1CCC(Nc2ccc(C(=O)Nc3cc(-c4ccc5ncn(Cc6ccc(F)cc6)c5c4)[nH]n3)cc2)CC1,100.93%,,
397 nM,1700 nM,CN1CCC(C(=O)Nc2cc(-c3ccc4ncn(Cc5ccccc5)c4c3)[nH]n2)CC1,,,
,12.5 nM,CCN1CCN(c2ccc(C(=O)Nc3cc(-c4ccc5ncn(Cc6cccc(F)c6Cl)c5c4)[nH]n3)cc2)CC1,,101.05%,Activity [6]: 47.53%
0.94 nM,66 nM,CN1CCC(Nc2ccc(C(=O)Nc3cc(-c4ccc5ncn(Cc6cccc(Cl)c6)c5c4)[nH]n3)cc2)CC1,100.75%,,

IC50 [1],IC50 [2],SMILES,Activity [3],Activity [5],other results
3.58 nM,,CN1CCC(Nc2ccc(C(=O)Nc3cc(-c4ccc5ncn(C6CC6)c5c4)[nH]n3)cc2)CC1,,,
3.72 nM,48.2 nM,Cc1cc(C(=O)Nc2cc(-c3ccc4ncn(Cc5ccccc5)c4c3)[nH]n2)ccc1NC1CCN(C)CC1,99.36%,,
16 nM,,CN1CCC(Nc2ccc(C(=O)Nc3cc(-c4ccc5ncn(Cc6ccncc6)c5c4)[nH]n3)cc2)CC1,,,
,4.85 nM,CCN1CCN(c2ccc(C(=O)Nc3cc(-c4ccc5ncn(Cc6c(C)cccc6C)c5c4)[nH]n3)cc2)CC1,,103.84%,Activity [6]: 4.57%
,3.14 nM,CN(C)CCNc1ccc(C(=O)Nc2cc(-c3ccc4ncn(Cc5c(Cl)cccc5Cl)c4c3)[nH]n2)cc1,,101.71%,
12.9 nM,219 nM,O=C(Nc1cc(-c2ccc3ncn(Cc4ccccc4)c3c2)[nH]n1)c1ccccc1,,,
3.59 nM,219 nM,CN1CCC(Nc2ccc(C(=O)Nc3cc(-c4ccc5ncn(Cc6ccc(Cl)cc6)c5c4)[nH]n3)cc2)CC1,101.73%,,
2.06 nM,75.6 nM,CN1CCC(Nc2ccc(C(=O)Nc3cc(-c4ccc5ccn(Cc6ccccc6)c5c4)[nH]n3)cc2)CC1,,,
,2.64 nM,CN1CCN(c2ccc(C(=O)Nc3cc(-c4ccc5ncn(Cc6c(Cl)cccc6Cl)c5c4)[nH]n3)cc2)CC1=O,,104.57%,
8.34 nM,90.6 nM,CN1CCC(Nc2ccc(C(=O)Nc3cc(-c4ccc5ncn(Cc6ccccc6F)c5c4)[nH]n3)cc2)CC1,99.79%,,
,1.1 nM,CC(=O)N1CCN(c2ccc(C(=O)Nc3cc(-c4ccc5ncn(Cc6c(Cl)cccc6Cl)c5c4)[nH]n3)cc2)CC1,,103.45%,
9.06 nM,86.2 nM,Cc1cc(NC2CCN(C)CC2)ccc1C(=O)Nc1cc(-c2ccc3ncn(Cc4ccccc4)c3c2)[nH]n1,,,
,12.6 nM,CCN1CCN(c2ccc(C(=O)Nc3cc(-c4ccc5ncn(Cc6cc(F)ccc6Cl)c5c4)[nH]n3)cc2)CC1,,107.7%,Activity [6]: 49.36%
23.7 nM,,CN1CCC(Nc2ccc(C(=O)Nc3cc(-c4cccc5c4ncn5C)[nH]n3)cc2)CC1,,,
,,CC(C)(C)c1cc(NC(=O)Nc2ccc(-c3cn4c(n3)sc3cc(OCCN5CCOCC5)ccc34)cc2)no1 [QUIZARTINIB],,,IC50 at 72 h [7]: > 1000 nM; IC50 [8]: 15 nM; IC50 [9]: 27.1 nM; IC50 [10]: 5.41 nM; IC50 [11]: 49.6 nM; IC50 [12]: 3.52 nM; IC50 [4]: 133 nM
1.42 nM,55.6 nM,CN1CCC(Nc2ccc(C(=O)Nc3cc(-c4ccc5ncn(Cc6ccsc6)c5c4)[nH]n3)cc2)CC1,108.58%,,
,2.78 nM,CN(C)CCN(C)c1ccc(C(=O)Nc2cc(-c3ccc4ncn(Cc5c(Cl)cccc5Cl)c4c3)[nH]n2)cc1,,102.83%,
0.85 nM,25.4 nM,CN1CCC(Nc2ccc(C(=O)Nc3cc(-c4ccc5ncn(Cc6ccccc6Cl)c5c4)[nH]n3)cc2)CC1,40.17%,,
3.86 nM,,CN1CCC(Nc2ccc(C(=O)Nc3cc(-c4ccc5ncn(CC6CCCCC6)c5c4)[nH]n3)cc2)CC1,,,
11.1 nM,99.3 nM,CN1CCC(Nc2ccc(C(=O)Nc3cc(-c4ccc5ncn(Cc6ccccc6)c5c4)[nH]n3)c(F)c2)CC1,,,
,6.37 nM,COCCNc1ccc(C(=O)Nc2cc(-c3ccc4ncn(Cc5c(Cl)cccc5Cl)c4c3)[nH]n2)cc1,,84.97%,
,3.25 nM,CCN1CCN(c2ccc(C(=O)Nc3cc(-c4ccc5ncn(Cc6c(Cl)cccc6Cl)c5c4)[nH]n3)cn2)CC1,,102.56%,
,,Nc1ccn([C@@H]2O[C@H](CO)[C@@H](O)[C@@H]2O)c(=O)n1 [CYTARABINE],,,inhibition in vivo at 30 mg/kg [13]: 66%; Activity [14]: Toxic; inhibition in vivo at 30 mg/kg [15]: 50.6%
,1.38 nM,CN1CCCN(c2ccc(C(=O)Nc3cc(-c4ccc5ncn(Cc6c(Cl)cccc6Cl)c5c4)[nH]n3)cc2)CC1,,107.43%,
0.94 nM,29.7 nM,Cc1ccccc1Cn1cnc2ccc(-c3cc(NC(=O)c4ccc(NC5CCN(C)CC5)cc4)n[nH]3)cc21,86.49%,,
3.88 nM,,CN1CCC(Nc2ccc(C(=O)Nc3cc(-c4ccc5ncn([C@H]6CC[C@H](N)CC6)c5c4)[nH]n3)cc2)CC1,,,
,2.26 nM,O=C(Nc1cc(-c2ccc3ncn(Cc4c(Cl)cccc4Cl)c3c2)[nH]n1)c1ccc(N2CC3CC2CN3)cc1 (stereo not given),,103.48%,

# From ChEMBL document CHEMBL5226341, “Discovery of a Potent FLT3 Inhibitor (LT-850-166) with the Capacity of Overcoming a Variety of FLT3 Mutations” (J Med Chem, 2021)
